Test [1] deals with phosphorylation of pRb at the Ser780 site in JeKo-1 mantle cell lymphoma cells. In words: CDK4 cellular assay: ELISA of pRb phosphorylation at Ser780 in JeKo-1 cells. The class given is cell-based.
In another test the target is CDK1/cyclin B (Homo sapiens (Human), UniProt P06493). The test can be described thus: CDK1/cyclin B enzymatic activity assay (IMAP-FP). It is filed as biochemical. To be noted: 100 nM Tamra Histone-H1 peptide, 20 μM ATP, 120 min at room temperature, read-out: Biochemical CDK1 enzyme IC50. An excerpt: CDK1/Cyclin B Enzymatic Activity Assay
CDK1/cyclin B, sequence (P06493 whole entry, species assumed): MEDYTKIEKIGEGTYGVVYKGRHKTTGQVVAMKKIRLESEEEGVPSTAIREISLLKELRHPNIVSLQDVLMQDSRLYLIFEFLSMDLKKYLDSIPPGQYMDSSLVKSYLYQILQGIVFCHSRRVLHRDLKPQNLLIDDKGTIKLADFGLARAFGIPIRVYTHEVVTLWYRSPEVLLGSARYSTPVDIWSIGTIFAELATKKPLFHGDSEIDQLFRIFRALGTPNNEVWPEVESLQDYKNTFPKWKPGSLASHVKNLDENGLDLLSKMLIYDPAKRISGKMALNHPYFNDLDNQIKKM
CDK1/cyclin B, sequence (P14635 whole entry partner, species assumed): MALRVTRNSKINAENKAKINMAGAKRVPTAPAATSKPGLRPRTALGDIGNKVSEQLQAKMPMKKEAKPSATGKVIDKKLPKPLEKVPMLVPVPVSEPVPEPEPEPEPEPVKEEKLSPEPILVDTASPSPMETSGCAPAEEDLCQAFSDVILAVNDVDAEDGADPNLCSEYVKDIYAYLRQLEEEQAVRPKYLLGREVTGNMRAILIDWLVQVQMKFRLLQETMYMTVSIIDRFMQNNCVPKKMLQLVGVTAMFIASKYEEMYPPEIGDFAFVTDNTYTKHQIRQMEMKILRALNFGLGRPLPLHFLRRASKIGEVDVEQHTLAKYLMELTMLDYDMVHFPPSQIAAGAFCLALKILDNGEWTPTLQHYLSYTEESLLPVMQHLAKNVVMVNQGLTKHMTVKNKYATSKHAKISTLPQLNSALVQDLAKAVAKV
A 384-well microtiter IMAP-FP™ (Molecular Devices Trade Mark Technology) endpoint assay was used for CDK1/cyclin B kinase activity measurements. The same assay was used for IC50 determination of small molecule inhibitors.

Another test concerns the target CDK4/cyclin D1 (Homo sapiens (Human), UniProt P11802). The test can be described thus: CDK4/cyclin D1 enzymatic activity assay (TR-FRET, phosphorylation of pRb at Ser780). The class given is biochemical. The method, boiled down:
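Phosphorylation at pRb Ser780, detected by TR-FRET, gave IC50s and kinetics. Enzyme: baculovirus/Sf21-expressed human CDK4/cyclin D1. ATP at 3 μM initiated the reaction; EDTA (pH 8.0) stopped it after 60 min at 22° C.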
(In general: TR-FRET usually uses a lanthanide donor and a delayed reading to cut background.)

The mark [2] stands for this setting: Homo sapiens, JeKo-1, JeKo-1 cells, p-pRb % inhibition adjusted with total pRb levels, read-out: Normalized cellular ppRb inhibition IC50.
Where [3] appears, read: Homo sapiens, JeKo-1, JeKo-1 cells, p-pRb Ser780 ELISA, non-normalized, read-out: Cellular ppRb inhibition IC50.
Where [4] appears, read: 0.3 nM CDK4/cyclin D1, 150 nM biotin-pRb (773-924), 3 μM ATP, 60 min at 22° C., read-out: Biochemical CDK4 enzyme IC50.
Setting [5] is: Homo sapiens, JeKo-1 cells, p-pRb % inhibition adjusted with total pRb levels, read-out: Normalized cellular ppRb inhibition IC50.
Setting [6] is: Homo sapiens, JeKo-1 cells, p-pRb Ser780 ELISA, non-normalized, read-out: Cellular ppRb inhibition IC50.

Like-named read-outs stand apart in the source and are kept apart here.

This passage reports IC50 results from patent publication US8957074B2 (Novartis AG, priority 2010, dated 2015).

CDK4/cyclin D1, sequence (P11802 whole entry): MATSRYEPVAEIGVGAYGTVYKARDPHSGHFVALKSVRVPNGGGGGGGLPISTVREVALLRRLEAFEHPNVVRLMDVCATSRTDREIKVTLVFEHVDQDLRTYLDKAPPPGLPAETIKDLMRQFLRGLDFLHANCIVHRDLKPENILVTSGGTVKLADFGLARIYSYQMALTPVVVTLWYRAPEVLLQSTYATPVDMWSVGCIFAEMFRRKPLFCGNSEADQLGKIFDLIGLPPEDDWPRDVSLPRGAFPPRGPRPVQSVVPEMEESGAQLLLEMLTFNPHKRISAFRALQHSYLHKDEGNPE
CDK4/cyclin D1, sequence (P24385 whole entry partner): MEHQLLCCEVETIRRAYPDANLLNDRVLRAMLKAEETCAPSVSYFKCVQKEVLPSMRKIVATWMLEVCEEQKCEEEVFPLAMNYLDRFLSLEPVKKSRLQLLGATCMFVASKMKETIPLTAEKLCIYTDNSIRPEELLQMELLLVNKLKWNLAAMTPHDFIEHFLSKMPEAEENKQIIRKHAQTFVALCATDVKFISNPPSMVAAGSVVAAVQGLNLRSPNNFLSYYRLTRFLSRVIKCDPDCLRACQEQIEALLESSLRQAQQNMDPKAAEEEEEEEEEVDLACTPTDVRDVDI

As to `CN(C)C(=O)c1cc2cnc(Nc3ccc(C(=O)N4CC5CCC(C4)N5C)cn3)nc2n1C1CCCC1` [Example 45, 7-cyclopentyl-2-[5-(8-methyl-3,8-diaza-bicyclo[3.2.1]octane-3-carbonyl)-pyridin-2-ylamino]-7H-pyrrolo[2,3-d]pyrimidine-6-carboxylic acid dimethylamide], the IC50 in test [1] (setting [2]) is 64 nM; in test [1] (setting [3]), 64 nM; on CDK1/cyclin B ([…] CDK1/cyclin B), 12800 nM; at CDK4/cyclin D1 (setting [4]) it was 14 to 24 nM.

In the case of `CN(C)C(=O)c1cc2cnc(Nc3ccc(C(=O)N4CC5CC(C4)N(CC(F)(F)F)C5)cn3)nc2n1C1CCCC1` (centres unmarked) [Example 12, 7-Cyclopentyl-2-{5-[6-(2,2,2-trifluoro-ethyl)-3,6-diaza-bicyclo[3.2.1]octane-3-carbonyl]-pyridin-2-ylamino}-7H-pyrrolo[2,3-d]pyrimidine-6-carboxylic acid dimethylamide], the IC50 in test [1] (setting [5]) was 724 nM; in test [1] (setting [6]), 255 nM; at CDK1/cyclin B ([…] CDK1/cyclin B), greater than 15000 nM; at CDK4/cyclin D1 (setting [4]), 49 nM.

In the case of `CN(C)C(=O)c1cc2cnc(Nc3ccc(N4CC5CCC(CC4=O)N5)cn3)nc2n1C1CCCC1` (centres unmarked) [Example 122, 7-Cyclopentyl-2-[5-(4-oxo-3,9-diaza-bicyclo[4.2.1]non-3-yl)-pyridin-2-ylamino]-7H-pyrrolo[2,3-d]pyrimidine-6-carboxylic acid dimethylamide], the IC50 in test [1] (JeKo-1 cells, p-pRb % inhibition adjusted with total pRb levels, read-out: Normalized cellular ppRb inhibition IC50) is 14 nM; in test [1] (JeKo-1 cells, p-pRb Ser780 ELISA, non-normalized, read-out: Cellular ppRb inhibition IC50), 9 nM; at CDK1/cyclin B ([…] CDK1/cyclin B) it was greater than 15000 nM; against CDK4/cyclin D1 it was 5 to 10 nM.

For the compound `CN(C)C(=O)c1cc2cnc(Nc3ccc(N4C[C@@H]5CC[C@H](CC4=O)N5C)cn3)nc2n1C1CCCC1` [Example 141, 7-Cyclopentyl-2-[5-((1S,6R)-9-methyl-4-oxo-3,9-diaza-bicyclo[4.2.1]non-3-yl)-pyridin-2-ylamino]-7H-pyrrolo[2,3-d]pyrimidine-6-carboxylic acid dimethylamide], the IC50 in test [1] (setting [2]) was 34 nM; in test [1] (setting [3]) it was 24 nM; at CDK1/cyclin B ([…] CDK1/cyclin B), greater than 15000 nM; on CDK4/cyclin D1 (setting [4]), 45 nM.

As for `CN(C)C(=O)c1cc2cnc(Nc3ccc(C(=O)N4CC5CNCC5C4)cn3)nc2n1C1CCCC1` (centres unmarked) [Example 32, 7-cyclopentyl-N,N-dimethyl-2-(5-(octahydropyrrolo[3,4-c]pyrrole-2-carbonyl)pyridin-2-ylamino)-7H-pyrrolo[2,3-d]pyrimidine-6-carboxamide], the IC50 is 212 nM in test [1] (setting [2]), 131 nM in test [1] (setting [3]), greater than 15000 nM at CDK1/cyclin B ([…] CDK1/cyclin B) and 15 to 21 nM at CDK4/cyclin D1 (setting [4]).

For the compound `CN(C)C(=O)c1cc2cnc(Nc3ccc(N4C[C@H]5CC[C@@H](CC4=O)N5CC(F)(F)F)cn3)nc2n1C1CCCC1` [Example 144, 7-cyclopentyl-N, N-dimethyl-2-(5-((1R,6S)-4-oxo-9-(2,2,2-trifluoroethyl)-3,9-diazabicyclo[4.2.1]nonan-3-yl)pyridin-2-ylamino)-7H-pyrrolo[2,3-d]pyrimidine-6-carboxamide], the IC50 was 49 nM in test [1] (setting [5]), 31 nM in test [1] (setting [6]), greater than 15000 nM at CDK1/cyclin B ([…] CDK1/cyclin B) and 19 nM on CDK4/cyclin D1 (setting [4]).

Take `CN(C)C(=O)c1cc2cnc(Nc3ccc(C(=O)N4C5CCC4CNC5)cn3)nc2n1C1CCCC1` [Example 22, 7-Cyclopentyl-2-[5-(3,8-diaza-bicyclo[3.2.1]octane-8-carbonyl)-pyridin-2-ylamino]-7H-pyrrolo[2,3-d]pyrimidine-6-carboxylic acid dimethylamide]: the IC50 in test [1] (setting [2]) was 86 to 817 nM; in test [1] (setting [3]), 86 to 513 nM; at CDK1/cyclin B ([…] CDK1/cyclin B), greater than 15000 nM; against CDK4/cyclin D1, 62 to 83 nM.

For `CN(C)C(=O)c1cc2cnc(Nc3ccc(N4C[C@H]5CNC[C@H]5C4=O)cn3)nc2n1C1CCCCCC1` [Example 83, 7-cycloheptyl-N,N-dimethyl-2-(5-((3aR,6aS)-1-oxohexahydropyrrolo[3,4-c]pyrrol-2(1H)-yl)pyridin-2-ylamino)-7H-pyrrolo[2,3-d]pyrimidine-6-carboxamide], the IC50 in test [1] (setting [5]) is 9 nM; in test [1] (setting [6]) it was 5 nM; at CDK1/cyclin B ([…] CDK1/cyclin B), 5320 nM; at CDK4/cyclin D1 (setting [4]), 3 nM.

On to `CN(C)C(=O)c1cc2cnc(Nc3ccc(N4CC5COCC(CC4=O)N5)cn3)nc2n1C1CCCC1` (centres unmarked) [Example 145, 7-Cyclopentyl-2-[5-(4-oxo-8-oxa-3,10-diaza-bicyclo[4.3.1]dec-3-yl)-pyridin-2-ylamino]-7H-pyrrolo[2,3-d]pyrimidine-6-carboxylic acid dimethylamide], for which the IC50 in test [1] (setting [5]) is 162 nM; in test [1] (setting [6]), 45 nM; at CDK1/cyclin B ([…] CDK1/cyclin B), greater than 15000 nM; at CDK4/cyclin D1 (setting [4]), 32 nM.

With `CN(C)C(=O)c1cc2cnc(Nc3ccc(N4CC5CNCC5CC4=O)cn3)nc2n1C1CCCC1` (racemic) [Example 90, 7-cyclopentyl-N,N-dimethyl-2-(5-(cis-6-oxotetrahydro-1H-pyrrolo[3,4-c]pyridin-5(6H,7H,7aH)-yl)pyridin-2-ylamino)-7H-pyrrolo[2,3-d]pyrimidine-6-carboxamide], the IC50 in test [1] (setting [2]) was 14 to 56 nM; in test [1] (setting [3]) it was 9 to 34 nM; at CDK1/cyclin B ([…] CDK1/cyclin B) it was greater than 15000 nM; at CDK4/cyclin D1 (setting [4]) it was 5 nM.

As to `CN1C[C@@H]2CN(c3ccc(Nc4ncc5cc(C(=O)N(C)C)n(C6CCCC6)c5n4)nc3)C(=O)[C@@H]2C1` (stereo in doubt) [Example 95, 7-cyclopentyl-N,N-dimethyl-2-(5-((3aR,6aS)-5-methyl-1-oxohexahydropyrrolo[3,4-c]pyrrol-2(1H)-yl)pyridin-2-ylamino)-7H-pyrrolo[2,3-d]pyrimidine-6-carboxamide], the IC50 in test [1] (setting [2]) is 21 to 65 nM; in test [1] (setting [3]), 4 to 20 nM; on CDK1/cyclin B (0.25 nM CDK1/cyclin B) it was 14000 to 14300 nM; on CDK4/cyclin D1 (setting [4]) it was 7 nM.

Take `[2H]C([2H])([2H])N1[C@@H]2CC[C@H]1CN(c1ccc(Nc3ncc4cc(C(=O)N(C)C)n(C5CCCC5)c4n3)nc1)C(=O)C2` [Example 143, 7-Cyclopentyl-2-[5-((1S,6R)-9-trideuteromethyl-4-oxo-3,9-diazabicyclo[4.2.1]non-3-yl)-pyridin-2-ylamino]-7H-pyrrolo[2,3-d]pyrimidine-6-carboxylic acid dimethylamide]: the IC50 in test [1] (setting [2]) is 251 nM; in test [1] (setting [3]), 119 nM; at CDK1/cyclin B (0.25 nM CDK1/cyclin B), greater than 15000 nM; at CDK4/cyclin D1 (setting [4]), 44 nM.

`CN(C)C(=O)c1cc2cnc(Nc3ccc(C(=O)N4CC5CCC(C4)N5)cn3)nc2n1[C@@H]1C[C@H]2CC[C@@H]1C2` (stereo in doubt) [Example 36, 7-(1R,2R,4S)-Bicyclo[2.2.1]hept-2-yl-2-[5-(3,8-diaza-bicyclo[3.2.1]octane-3-carbonyl)-pyridin-2-ylamino]-7H-pyrrolo[2,3-d]pyrimidine-6-carboxylic acid dimethylamide]: the IC50 in test [1] (setting [2]) came to 28 nM; in test [1] (setting [3]) it was 23 nM; at CDK1/cyclin B ([…] CDK1/cyclin B), 13000 nM; on CDK4/cyclin D1 (setting [4]) it was 3 nM.

As for `CN(C)C(=O)c1cc2cnc(Nc3ccc(N4CC5CCC(CC4=O)N5)cn3)nc2n1C1CCCCC1` (centres unmarked) [Example 131, 7-cyclohexyl-N,N-dimethyl-2-(5-(4-oxo-3,9-diazabicyclo[4.2.1]nonan-3-yl)pyridin-2-ylamino)-7H-pyrrolo[2,3-d]pyrimidine-6-carboxamide], the IC50 in test [1] (setting [2]) is 24 nM; in test [1] (setting [3]), 14 nM; on CDK1/cyclin B ([…] CDK1/cyclin B) it was greater than 15000 nM; on CDK4/cyclin D1 (setting [4]), 4 nM.

For the compound `CN(C)C(=O)c1cc2cnc(Nc3ccc(C(=O)N4C[C@@H]5C[C@H]4C[C@H]5O)cn3)nc2n1C1CCCC1` [Example 31, 7-cyclopentyl-2-(5-((1S,4S,5R)-5-hydroxy-2-azabicyclo[2.2.1]heptane-2-carbonyl)pyridin-2-ylamino)-N,N-dimethyl-7H-pyrrolo[2,3-d]pyrimidine-6-carboxamide], the IC50 in test [1] (setting [5]) is 497 to 591 nM; in test [1] (setting [6]), 252 to 352 nM; at CDK1/cyclin B ([…] CDK1/cyclin B), greater than 15000 nM; on CDK4/cyclin D1 (setting [4]) it was 69 to 81 nM.

`CN(C)C(=O)c1cc2cnc(Nc3ccc(C(=O)N4CC5CCC4C5O)cn3)nc2n1C1CCCCCC1` [Example 7, 7-cycloheptyl-2-(5-((1R,4R,7R)-7-hydroxy-2-azabicyclo[2.2.1]heptane-2-carbonyl)pyridin-2-ylamino)-N,N-dimethyl-7H-pyrrolo[2,3-d]pyrimidine-6-carboxamide]: the IC50 in test [1] (setting [5]) came out at 288 nM; in test [1] (setting [6]) it was 127 nM; at CDK1/cyclin B ([…] CDK1/cyclin B) it was 17600 nM; on CDK4/cyclin D1 (setting [4]) it was 21 nM.

Take `CN(C)C(=O)c1cc2cnc(Nc3ccc(C(=O)N4CC5CCC4C5O)cn3)nc2n1C1CCCC1` (centres unmarked) [Example 26]: the IC50 in test [1] (setting [5]) is 388 nM; in test [1] (setting [6]) it was 325 nM; on CDK1/cyclin B ([…] CDK1/cyclin B), greater than 15000 nM; on CDK4/cyclin D1 (setting [4]) it was 38 nM.

Broadly, the IC50 is the concentration needed to halve the response being measured.
